Drawing on ChEMBL document CHEMBL1132782, this text covers K ass for 27 compounds.

Structures are written as SMILES.

This assay concerns the target Prothrombin (Homo sapiens) (UniProt P00734). As to the kind of experiment: Inhibitory activity against human thrombin.

With `COc1cc(Cn2c(-c3ccc(OCCN4CCCC4)cc3)nc3ccccc32)ccc1CN1CCCC1`, the K ass is 1.19e+07 l M-1.

As for `COc1cc(Cn2c(-c3ccc(OCCn4cccn4)cc3)nc3ccccc32)ccc1CN1CCCC1`, the K ass was 1.46e+06 l M-1.

Consider `COc1cc(Cn2c(-c3ccc(OCCN4CCCC4)cc3)nc3cc(CN)ccc32)ccc1CN1CCCC1`, for which the K ass was 4.49e+06 l M-1.

Consider `COc1cc(Cn2c(-c3ccc(OCCN4CCCC4=O)cc3)nc3ccccc32)ccc1CN1CCCC1`, for which the K ass is 1.5e+07 l M-1.

In the case of `c1ccc2c(c1)nc(-c1ccc(OCCN3CCCC3)cc1)n2Cc1ccc(OCCN2CCCC2)cc1`, the K ass is 332000 l M-1.

On to `O=C(c1ccc(OCCN2CCCC2)cc1)c1c(-c2ccc(OCCN3CCCC3)cc2)sc2ccccc12`, for which the K ass was 410000 l M-1.

With `COc1cc(Cn2c(-c3ccc(OCCN4CCCC4)cc3)nc3cc(O)ccc32)ccc1Cn1cccn1`, the K ass is 1.2e+07 l M-1.

Turning to `COc1cc(Cc2c(-c3ccc(OCCN4CCCC4)cc3)sc3cc(O)ccc23)ccc1CN1CCCC1`, the K ass was 8.15e+08 l M-1.

In the case of `COC(=O)CCCOc1ccc(-c2sc3ccccc3c2Cc2ccc(CN3CCCC3)c(OC)c2)cc1`, the K ass is 7.68e+06 l M-1.

Consider `COc1cc(Cn2c(-c3ccc(OCCN4CCCC4)cc3)cc3ccccc32)ccc1CN1CCCC1`, for which the K ass is 1.97e+08 l M-1.

Take `COc1cc(Cn2c(-c3ccc(OCCN4CCCC4)cc3)cc3ccncc32)ccc1C(=O)N1CCCC1`: the K ass is 5.97e+07 l M-1.

Consider `COC(=O)CCCOc1ccc(-c2cc3ccccc3n2Cc2ccc(CN3CCCC3)c(OC)c2)cc1`, for which the K ass was 2.47e+07 l M-1.

As to `COc1cc(Cn2c(-c3ccc(OCCN4CCCC4)cc3)nc3cc(CO)ccc32)ccc1CN1CCCC1`, the K ass was 1.93e+06 l M-1.

Consider `COc1cc(Cc2c(-c3ccc(OCCN4CCCC4)cc3)sc3ccccc23)ccc1CN1CCCC1`, for which the K ass is 1.26e+08 l M-1.

Regarding `COc1cc(Cn2c(-c3ccc(OCCN4CCCC4)cc3)nc3cc(O)ccc32)ccc1CN1CCCC1`, the K ass was 9.72e+06 l M-1.

With `COc1cc(Cn2c(-c3ccc(OCCCC(=O)O)cc3)cc3ccccc32)ccc1CN1CCCC1`, the K ass was 6.41e+06 l M-1.

For the compound `COc1cc(Cn2c(-c3ccc(OCCN4CCCC4)cc3)cc3cnccc32)ccc1C(=O)N1CCCC1`, the K ass is 8.37e+07 l M-1.

Turning to `COc1cc(Cn2c(-c3ccc(OCCN4CCCC4)cc3)nc3cc(O)ccc32)ccc1Cn1ccnc1`, the K ass is 9.6e+06 l M-1.

In the case of `COc1cc(Cn2c(-c3ccc(OCCN4CCCC4)cc3)cc3cnccc32)ccc1CN1CCCC1`, the K ass is 7.39e+07 l M-1.

With `c1ccc2c(Cc3ccc(OCCN4CCCC4)cc3)c(-c3ccc(OCCN4CCCC4)cc3)[nH]c2c1`, the K ass is 42000 l M-1.

Regarding `COc1cc(Cc2c(-c3ccc(OCCCC(=O)O)cc3)sc3ccccc23)ccc1CN1CCCC1`, the K ass was 3.91e+06 l M-1.

For `COc1cc(Cn2c(-c3ccc(OCCN4CCCC4)cc3)nc3cc(O)ccc32)ccc1NCc1ccccc1`, the K ass was 1.65e+07 l M-1.

For `COc1cc(Cn2c(-c3ccc(OCCCCO)cc3)cc3ccccc32)ccc1CN1CCCC1`, the K ass was 3.37e+07 l M-1.

Take `c1ccc2c(c1)cc(-c1ccc(OCCN3CCCC3)cc1)n2Cc1ccc(OCCN2CCCC2)cc1`: the K ass is 6.27e+06 l M-1.

Turning to `COc1cc(Cn2c(-c3ccc(OCCN4CCCC4)cc3)nc3cc(O)ccc32)ccc1Cn1ccnn1`, the K ass is 1.02e+07 l M-1.

For `c1ccc2c(Cc3ccc(OCCN4CCCC4)cc3)c(-c3ccc(OCCN4CCCC4)cc3)oc2c1`, the K ass is 974000 l M-1.

Turning to `COc1cc(Cc2c(-c3ccc(OCCCCO)cc3)sc3ccccc23)ccc1CN1CCCC1`, the K ass was 1.49e+07 l M-1.
